Measured values published in US9593110B2, “Neprilysin inhibitors” (Theravence Biopharma R&D IP, LLC, priority 2014, dated 2017).

Biological target: human NEP (Homo sapiens (Human), UniProt P08473)
Test: In vitro enzyme inhibition assay at human NEP
Details: recombinant human NEP, fluorogenic peptide substrate, 37° C.; for Ki: pKi
Protocol: The inhibitory activities of compounds at human and rat neprilysin (EC 3.4.24.11; NEP) and human angiotensin converting enzyme (ACE) were determined using in vitro assays as described below.
The assays were performed in 384-well white opaque plates at 37° C. using the fluorogenic peptide substrates at a concentration of 10 μM in Assay Buffer (NEP: 50 mM HEPES, pH 7.5, 100 mM NaCl, 0.01% polyethylene glycol sorbitan monolaurate (Tween-20), 10 μM ZnSO4; ACE: 50 mM HEPES, pH 7.5, 100 mM NaCl, 0.01% Tween-20, 1 μM ZnSO4).
Test compounds were assayed over the range of concentrations from 10 μM to 20 pM. Test compounds were added to the enzymes and incubated for 30 minute at 37° C. prior to initiating the reaction by the addition of substrate.
Plates were read on a fluorometer with excitation and emission wavelengths set to 320 nm and 405 nm, respectively Inhibition constants were obtained by nonlinear regression of the data using the equation (GraphPad Software, Inc., San Diego, Calif.): v=v0/[1+(I/K′)] where v is the reaction rate, v0 is the uninhibited reaction rate, I is the inhibitor concentration and K′ is the apparent inhibition constant.

human NEP, sequence (P08473 52-750): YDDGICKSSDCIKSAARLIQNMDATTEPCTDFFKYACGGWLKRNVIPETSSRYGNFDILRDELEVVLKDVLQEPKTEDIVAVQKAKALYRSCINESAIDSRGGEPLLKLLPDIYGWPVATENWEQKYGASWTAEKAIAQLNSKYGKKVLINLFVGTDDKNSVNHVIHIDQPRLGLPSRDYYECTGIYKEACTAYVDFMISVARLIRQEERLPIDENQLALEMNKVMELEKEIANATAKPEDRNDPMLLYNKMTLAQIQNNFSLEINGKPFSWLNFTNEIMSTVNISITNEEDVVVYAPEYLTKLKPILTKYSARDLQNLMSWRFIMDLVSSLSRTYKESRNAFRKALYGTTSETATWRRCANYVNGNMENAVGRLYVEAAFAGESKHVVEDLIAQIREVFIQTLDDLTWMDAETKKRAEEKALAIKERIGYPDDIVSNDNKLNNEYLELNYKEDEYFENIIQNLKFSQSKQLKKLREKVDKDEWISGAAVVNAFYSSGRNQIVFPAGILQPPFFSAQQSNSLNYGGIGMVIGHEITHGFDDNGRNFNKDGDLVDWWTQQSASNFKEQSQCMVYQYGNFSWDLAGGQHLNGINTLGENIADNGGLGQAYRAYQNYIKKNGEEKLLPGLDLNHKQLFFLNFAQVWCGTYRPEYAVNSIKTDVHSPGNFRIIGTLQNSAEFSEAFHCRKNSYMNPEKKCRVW

Row | Compound | Ki [nM] | pKi
1 | O=C(N[C@H](Cc1ccc(-c2cc(Cl)ccc2F)cc1)C[C@@H](CNCCO)C(=O)O)c1cnn[nH]1 (single isomer, unassigned) [Example 48a] | ≤ 1 | –
2 | O=C(N[C@H](Cc1ccc(-c2cc(Cl)ccc2F)cc1)C[C@@H](CNCCO)C(=O)O)c1cnn[nH]1 (single isomer, unassigned) [Example 48b] | 1.26 to 3.16 | –
3 | COCCNC[C@H](C[C@@H](Cc1ccc(-c2cc(Cl)ccc2F)cc1)NC(=O)c1cnn[nH]1)C(=O)O (single isomer, unassigned) [Example 49a] | ≤ 1 | –
4 | Cc1cc(C(=O)NC(Cc2ccc(-c3cc(Cl)ccc3F)cc2)C[C@@H](CC#N)C(=O)O)sn1 (single isomer, unassigned) [Example 52-2] | 3.16 to 10 | –
5 | O=C(N[C@H](Cc1ccc(-c2cc(Cl)ccc2F)cc1)CC(C(=O)O)c1cccnc1)c1cnn[nH]1 (single isomer, unassigned) [Example 77a] | 3.16 to 10 | –
6 | O=C(N[C@H](Cc1ccc(-c2ccccc2)cc1)CC(C(=O)O)C1CCOCC1)c1cnn[nH]1 (stereo in doubt) [Example 58, (S)-5-Biphenyl-4-yl-2-(tetrahydropyran-4-yl)-4-[(3H-[1,2,3]triazole-4-carbonyl)amino]pentanoic Acid] | 3.16 to 10 | –
7 | O=C(N[C@H](Cc1ccc(-c2cc(Cl)ccc2F)cc1)CC(C(=O)O)C1CCNCC1)c1cnn[nH]1 (stereo in doubt) [Example 59, (S)-5-(5′-Chloro-2′-fluorobiphenyl-4-yl)-2-piperidin-4-yl-4-[(3H-[1,2,3]triazole-4-carbonyl)amino]pentanoic Acid] | ≤ 1 | –
8 | CC(=O)N1CCC(C(C[C@@H](Cc2ccc(-c3ccccc3)cc2)NC(=O)c2cnn[nH]2)C(=O)O)CC1 (stereo in doubt) [Example 60, (S)-2-(1-Acetylpiperidin-4-yl)-5-biphenyl-4-yl-4-[(3H-[1,2,3]triazole-4-carbonyl)amino]pentanoic Acid] | 3.16 to 10 | –
9 | O=C(N[C@H](Cc1ccc(-c2cc(Cl)ccc2F)cc1)CC(C(=O)O)c1ccccn1)c1cnn[nH]1 (stereo in doubt) [Example 76, (S)-5-(5′-Chloro-2′-fluorobiphenyl-4-yl)-2-pyridin-2-yl-4-[(3H-[1,2,3]triazole-4-carbonyl)amino]pentanoic Acid] | 12.6 to 31.6 | –
10 | O=C(N[C@H](Cc1ccc(-c2cc(Cl)ccc2F)cc1)CC(C(=O)O)c1cccs1)c1cnn[nH]1 (stereo in doubt) [Example 78, (S)-5-(5′-Chloro-2′-fluorobiphenyl-4-yl)-2-thiophen-2-yl-4-[(3H-[1,2,3]triazole-4-carbonyl)amino]pentanoic Acid] | 1.26 to 3.16 | –
11 | O=C(N[C@H](Cc1ccc(-c2cc(Cl)ccc2F)cc1)CC(C(=O)O)c1ccsc1)c1cnn[nH]1 (stereo in doubt) [Example 79, (S)-5-(5′-Chloro-2′-fluorobiphenyl-4-yl)-2-thiophen-3-yl-4-[(3H-[1,2,3]triazole-4-carbonyl)amino]pentanoic Acid] | 1.26 to 3.16 | –
12 | COC[C@H](C[C@@H](Cc1ccc(-c2cc(Cl)ccc2F)cc1)NC(=O)c1[nH]nc(C2CC2)c1F)C(=O)O [Example 2-3, (2S,4S)-5-(5′-Chloro-2′-fluorobiphenyl-4-yl)-4-[(5-cyclopropyl-4-fluoro-2H-pyrazole-3-carbonyl)amino]-2-methoxymethylpentanoic acid] | 1.26 to 3.16 | –
13 | COC[C@H](C[C@@H](Cc1ccc(-c2cc(Cl)ccc2F)cc1)NC(=O)c1cc(C(C)=O)n[nH]1)C(=O)O [Example 2-4, (2S,4S)-4-[(5-Acetyl-2H-pyrazole-3-carbonyl)-amino]-5-(5′-chloro-2′-fluorobiphenyl-4-yl)-2-methoxymethylpentanoic acid] | – | ≧9.0
14 | COC[C@H](C[C@@H](Cc1ccc(-c2cc(Cl)ccc2F)cc1)NC(=O)c1cc(O)no1)C(=O)O [Example 2-5, (2S,4S)-5-(5′-Chloro-2′-fluorobiphenyl-4-yl)-4-[(3-hydroxyisoxazole-5-carbonyl)-amino]-2-methoxymethylpentanoic acid] | – | ≧9.0
15 | COC[C@H](C[C@@H](Cc1ccc(-c2cc(Cl)ccc2F)cc1)NC(=O)c1ncco1)C(=O)O [Example 2-7, (2S,4S)-5-(5′-Chloro-2′-fluorobiphenyl-4-yl)-2-methoxymethyl-4-[(oxazole-2-carbonyl)amino]pentanoic acid] | – | ≧9.0
16 | COC[C@H](C[C@@H](Cc1ccc(-c2cc(Cl)ccc2F)cc1)NC(=O)c1c[nH]c(=O)o1)C(=O)O [Example 2-10, (2S,4S)-5-(5′-Chloro-2′-fluorobiphenyl-4-yl)-2-methoxymethyl-4-[(2-oxo-2,3-dihydro-oxazole-5-carbonyl)amino]pentanoic acid] | 1.26 to 3.16 | –
17 | COC[C@H](C[C@@H](Cc1ccc(-c2cc(Cl)ccc2F)cc1)NC(=O)c1noc(=O)[nH]1)C(=O)O [Example 2-11, (2S,4S)-5-(5′-Chloro-2′-fluorobiphenyl-4-yl)-2-methoxymethyl-4-[(5-oxo-4,5-dihydro-[1,2,4]oxadiazole-3-carbonyl)amino]pentanoic acid] | – | ≧9.0
18 | COC[C@H](C[C@@H](Cc1ccc(-c2cc(Cl)ccc2F)cc1)NC(=O)c1ccc(Cl)cn1)C(=O)O [Example 2-12, (2S,4S)-5-(5′-Chloro-2′-fluorobiphenyl-4-yl)-4-[(5-chloro-pyridine-2-carbonyl)-amino]-2-methoxymethylpentanoic acid] | – | ≧9.0
19 | COC[C@H](C[C@@H](Cc1ccc(-c2cc(Cl)ccc2F)cc1)NC(=O)c1ccc(C(F)(F)F)cn1)C(=O)O [Example 2-14, (2S,4S)-5-(5′-Chloro-2′-fluorobiphenyl-4-yl)-2-methoxymethyl-4-[(5-trifluoromethylpyridine-2-carbonyl)amino]pentanoic acid] | – | ≧9.0
20 | COC[C@H](C[C@@H](Cc1ccc(-c2cccc(Cl)c2)cc1)NC(=O)c1n[nH]c(C(F)(F)F)n1)C(=O)O [Example 4-1, (2S,4S)-5-(3′-Chlorobiphenyl-4-yl)-2-methoxymethyl-4-[(5-trifluoromethyl-1H-[1,2,4]triazole-3-carbonyl)amino]pentanoic acid] | – | ≧9.0
21 | COC[C@H](C[C@@H](Cc1ccc(-c2cccc(Cl)c2)cc1)NC(=O)c1cc(O)no1)C(=O)O [Example 4-2, (2S,4S)-5-(3′-Chlorobiphenyl-4-yl)-4-[(3-hydroxy-isoxazole-5-carbonyl)amino]-2-methoxymethylpentanoic acid] | – | ≧9.0
22 | COC[C@H](C[C@@H](Cc1ccc(-c2cccc(Cl)c2)cc1)NC(=O)c1noc(=O)[nH]1)C(=O)O [Example 4-3, (2S,4S)-5-(3′-Chlorobiphenyl-4-yl)-2-methoxymethyl-4-[(5-oxo-4,5-dihydro-[1,2,4]oxadiazole-3-carbonyl)amino]pentanoic acid] | – | ≧9.0
23 | CCOC[C@H](C[C@@H](Cc1ccc(-c2cc(Cl)ccc2F)cc1)NC(=O)c1n[nH]c(C(F)(F)F)n1)C(=O)O [Example 6, (2S,4S)-5-(5′-Chloro-2′-fluorobiphenyl-4-yl)-2-ethoxymethyl-4-[(5-trifluoromethyl-1H-[1,2,4]triazole-3-carbonyl)amino]pentanoic Acid] | – | ≧9.0
24 | CCOC[C@H](C[C@@H](Cc1ccc(-c2cc(Cl)ccc2F)cc1)NC(=O)c1cc(C(C)=O)n[nH]1)C(=O)O [Example 7-3, (2S,4S)-4-[(5-Acetyl-2H-pyrazole-3-carbonyl)-amino]-5-(5′-chloro-2′-fluorobiphenyl-4-yl)-2-ethoxymethylpentanoic acid] | – | ≧9.0
